Data as given in article PMC11345829, “Discovery of Potent Isoquinolinequinone N-Oxides to Overcome Cancer Multidrug Resistance” (Journal of Medicinal Chemistry, 2024).
Read-outs that look alike come from different tables or passages of the source.

Tests used:
[1] = system: NCI-H460; test: SRB cell growth inhibition assay; assay type: cell-based; conditions: Homo sapiens, 48 h, NSCLC sensitive, mean ± SEM
Description: (§1) Taking into consideration the promising results of preliminary NCI screening, nine compounds (1, 2, 3, 4, 5, 20, 23, 24, 25) were selected for further screening in two counterpart pairs of sensitive and MDR cell lines. […] Two distinct pairs of counterpart drug-sensitive and MDR human tumor cell lines were used, namely the non-small lung cancer (NSCLC) NCI-H460 (same cell line as in the NCI screen) and its MDR counterpart cell line NCI-H460/R and the colorectal cancer DLD1 and its MDR counterpart cell line DLD1-TxR (Table 3). The screening was performed using the SRB assay, and the GI50 for each compound was determined by interpolation on the attained concentration−response curves and compared with NCI60 screening data (SI, Figures S62−S63; Table S21).
(§2) Two pairs of drug-sensitive and multidrug-resistant (MDR) cell lines from human nonsmall cell lung cancer (NSCLC), NCI-H460 and NCI-H460/R, and colorectal cancer, DLD1 and DLD1-TxR, kindly provided by Dr M. Pešić (Belgrade, Serbia), were used to evaluate the growth inhibition potential of the compounds 1, 2, 3, 4, 5, 20, 23, 24, an 25.[76],[77] Additionally, growth inhibition assays were performed with compound 25 on two other NSCLC cell lines, A549 and NCI-H322, obtained from the American Type Culture Collection (ATCC) and the European Collection of Authenticated Cell Cultures, respectively. The A549 cell line was maintained in Dulbecco’s Modified Eagle Medium (DMEM) supplemented with 4.5 g/L Glucose with UltraGlutamine with sodium pyruvate (Lonza, Basel Stücki, Switzerland), enriched with 10% fetal bovine serum (FBS; Biowest, Nuaillé, France). The lung fibroblast MRC-5 cell line and the remaining NSCLC and colorectal cancer cell lines were cultured in Roswell Park Memorial Institute (RPMI) 1640 (with stable glutamine and 25 mM HEPES) medium (Biowest), supplemented with 10% fetal bovine serum. […] For the sulforhodamine B (SRB) and 3D cell culture assays, the media were supplemented with 5% FBS. The remaining experiments were performed with medium supplemented with 10% FBS.
(§3) Cells were seeded at a previously determined optimal cell concentration (5.0 × 10^4 cells/mL for NSCLC cells and the nontumorigenic MRC-5 cell line and 1.0 × 10^5 cells/mL for colorectal cancer cells) and incubated at 37 °C for 24 h. […] The SRB assay was performed as previously described.[78],[79] Briefly, after fixing cells with 10% (w/v) ice-cold trichloroacetic acid (Merck Life Science), the proteins were stained with 0.4% of SRB (Merck Life Science) in acetic acid (Merck Life Science). Following washing steps in acetic acid, the bound dye was solubilized with 10 mM Tris base solution (Merck Life Science). Absorbance was measured at 510 nm in a multiplate reader (Synergy Mx, Biotek Instruments Inc., Winooski, Vermont, USA) using the Gen5 software (Biotek Instruments Inc.).

[2] = system: DLD1; test: SRB cell growth inhibition assay; assay type: cell-based; conditions: Homo sapiens, DLD-1, 48 h, colorectal cancer sensitive, mean ± SEM
Description: as §1, §2, §3

[3] = system: NCI60 tumor cell line panel; test: NCI60 five-dose screen, mean over panel; assay type: cell-based, human
Description: The concentration−response curve generated enables the determination of three criteria, GI50 (drug concentration at which 50% of cell growth is inhibited), total growth inhibition (TGI) and LC50 (drug concentration at which 50% of tumor cells are killed) which can be used to compare effectiveness against any compound tested in the screen since its inception.
S2.1 NCI Screening Assay Experimental details
NCI Screening Assay Experimental: Cancer cell growth assays (NCI60 screening) 5,6 One-dose study: Tested compounds were initially solubilised in DMSO, diluted into RPMI 1640 and 5% fetal bovine serum/L-glutamine, and added to 96-well plates containing cell lines previously cultured for 24 h. After 48 h incubation, the media were removed, and the cells were fixed and stained with sulforhodamine B to determine overall percent growth/ total protein content. Unbound dye was removed with five washes of 1% acetic acid, and the plates were allowed to air dry. The dye was then resolubilised in Tris buffer, and the colorimetric absorbance was measured (515 nm). Growth inhibition was measured relative to the response generated from proliferating cells cultured under identical conditions for 48 h. Data from one-dose experiments pertains to the percentage growth at […]
Five-dose study: Serial 5 × 10-fold dilution from an initial DMSO stock solution was performed, prior to incubation at each individual concentration (10 nM, 100 nM, 1 μM, 10 μM and 100 μM). Using seven absorbance measurements (time zero (Tz), control growth (C), and test growth in the presence of drug at the five concentration levels (Ti)), the percentage growth was calculated at each of the drug concentrations levels. Percentage growth inhibition was calculated as: [(Ti − Tz)/(C − Tz)] × 100 for concentrations for which Ti ≥ Tz, [(Ti − Tz)/Tz] × 100 for concentrations for which Ti < Tz. Three dose response parameters were calculated for each experimental agent. […]
was calculated from [(Ti − Tz)/(C − Tz)] × 100 = 50, which is the drug concentration resulting in a 50% reduction in the net protein increase (as measured by sulforhodamine B staining) in control cells during the drug incubation. The drug concentration resulting in total growth inhibition (TGI) was calculated from Ti = Tz. The LC50 (concentration of drug resulting in a 50% reduction in the measured protein at the end of the drug treatment as compared to that at the beginning) indicating a net loss of cells following treatment was calculated from [(Ti − Tz)/Tz] × 100 = −50. Values were calculated for each of these three parameters if the level of activity was reached; however, if the effect was not reached or was exceeded, the value for that parameter was expressed as greater or less than the maximum or minimum concentration tested.

[4] = Homo sapiens, five dose, across 57-60 cell lines (number given per compound), read-out: Mean of GI50 as Log 10 Concentration (SD) (converted)
[5] = five dose, mean over 52 human tumor cell lines common to all analogues, read-out: mean GI50

SMILES | GI50 [1] | GI50 [2] | fold more potent average GI50 than 1 ([3]; 2 versus 1) | GI50 [3, 4] | GI50 [3, 5] | share of FDA approved anticancer agents outperformed in mean LC50 ([3]; comparison with ref 45) | share of FDA approved anticancer agents with higher mean GI50 ([3]; comparison with ref 45) | cell lines with ≤200 nM GI50 ([3]; five dose, number of cell lines out of 60)
COC(=O)c1c2c(c(C)[n+]([O-])c1C)C(=O)C=C(NCc1ccccc1)C2=O [Compound 2] | 1.43 ± 0.13 µM | 2.33 ± 0.38 µM | 2.8 fold |  |  |  |  | 
COC(=O)c1c2c(c(C)[n+]([O-])c1C)C(=O)C=C(NCc1ccc(F)cc1)C2=O [Compound 5] | 0.56 ± 0.2 µM | 1.22 ± 0.14 µM |  | 0.583 µM | 0.76 µM |  |  | 
COC(=O)c1c2c(c(C)[n+]([O-])c1C)C(=O)C(NCc1ccc(F)cc1)=CC2=O [Compound 4] | 2.7 ± 0.3 µM | 5.94 ± 0.3 µM |  | 1.41 µM | 1.54 µM |  |  | 
COC(=O)c1c2c(c(C)[n+]([O-])c1C)C(=O)C(NCc1ccc(O)cc1)=CC2=O [Compound 20] | 6.02 ± 0.34 µM | 9.67 ± 1.15 µM |  | 1.31 µM | 1.58 µM |  |  | 

Second part, led by results:

GI50 [1] | GI50 [2] | SMILES | fold more potent average GI50 than 1 ([3]; 2 versus 1) | GI50 [3, 4] | GI50 [3, 5] | share of FDA approved anticancer agents outperformed in mean LC50 ([3]; comparison with ref 45) | share of FDA approved anticancer agents with higher mean GI50 ([3]; comparison with ref 45) | cell lines with ≤200 nM GI50 ([3]; five dose, number of cell lines out of 60)
0.75 ± 0.14 µM | 1.39 ± 0.17 µM | COC(=O)c1c2c(c[n+]([O-])c1C)C(=O)C(NCc1ccccc1)=CC2=O [Compound 24] |  | 0.579 µM | 0.69 µM |  |  | 
38 ± 8.32 µM | 30.2 ± 4.08 µM | COC(=O)c1c2c(c[n+]([O-])c1C)C(=O)C=CC2=O [Compound 23] |  | 2.49 µM | 2.15 µM |  |  | 
0.35 ± 0.02 µM | 0.61 ± 0.11 µM | COC(=O)c1c2c(c[n+]([O-])c1C)C(=O)C=C(NCc1ccccc1)C2=O [Compound 25] |  | 0.19 µM | 0.21 µM | 86% | 83% | 31/60
0.03 ± 0.01 µM |  | COc1cccc2c1C(=O)c1c(O)c3c(c(O)c1C2=O)C[C@@](O)(C(=O)CO)C[C@@H]3O[C@H]1C[C@H](N)[C@H](O)[C@H](C)O1 [doxorubicin, reference compound] |  |  |  |  |  | 
